From US9018224B2, “Substituted cyclopropyl compounds useful as GPR119 agonists” (Merck Sharp & Dohme Corp., priority 2011, dated 2015) come the findings set out here.

This test deals with T1, human GPR119 (Homo sapiens, UniProt Q8TDV5).
T1 sequence (Q8TDV5 1-308 limits assumed): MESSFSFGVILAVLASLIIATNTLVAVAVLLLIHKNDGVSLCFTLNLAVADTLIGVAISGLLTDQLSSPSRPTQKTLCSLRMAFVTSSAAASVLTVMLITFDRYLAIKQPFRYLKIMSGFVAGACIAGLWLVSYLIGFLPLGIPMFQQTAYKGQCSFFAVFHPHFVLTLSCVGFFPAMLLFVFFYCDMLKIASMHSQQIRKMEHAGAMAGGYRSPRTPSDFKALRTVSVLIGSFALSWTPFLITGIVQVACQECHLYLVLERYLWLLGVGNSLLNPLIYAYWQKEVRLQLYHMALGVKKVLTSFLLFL
The test can be described thus: Measurement of GPR119 signaling by cAMP (LANCE cAMP kit or HTRF) in HEK293 cells transfected with human GPR119. The class given is cell-based. The conditions noted are these: agonist cAMP response in HEK293 cells stably transfected with human GPR119; patent does not say which of the two cAMP formats (LANCE or HTRF). The procedure: Measurement of GPR119 Signaling Using LANCE 384-Well cAMP Kit
The adenylate cyclase assay was constructed following the LANCE™ cAMP Kit (Perkin Elmer, AD0264) instructions. […] The reaction was stopped by incubating with the supplied detection buffer containing the europium chelate of the Eu-SA/Biotin-cAMP tracer for 3 hours. The assay was performed in duplicate in a 384 well plate for duplicate plates. […] Basal activity was determined using a DMSO control and maximum response was defined as cAMP stimulation produced by an internal agonist control. Standard cAMP concentrations were assayed concurrently for conversion of fluorescence signal to cAMP level. The data was analyzed using 4-parameter curve fit in Microsoft Excel
Measurement of GPR119 Signaling Using a Cyclic AMP (cAMP) Homogenous Time Resolved Fluorescence (HTRF) Assay
Chinese hamster ovary (CHO) cell lines stably transfected with the permissive guanine nucleotide binding protein alpha 15 (Gα15) and murine GPR119 were maintained in DMEM media containing FBS, penicillin-streptomycin, puromycin, and G418 (geneticin). […] Agonist activation of the GPR119 receptor was measured in receptor transfected cells described above, treated with compounds of this invention, using a commercial homogenous time resolved fluorescence (HTRF) kit for measurement of cAMP (CisBio, Bedford, Mass.). The assay was performed in 96-well half-volume plates (murine) or 384-well plates (human) following the manufacturers instructions. Briefly, suspended cells were incubated with a dose titration of test compound at room temperature for 60 min, lysed, and incubated with HTRF reagents for an additional 60 min. The plate was read using an Envision multilabel reader (Perkin Elmer) adjusted to read time resolved fluorescence and the cAMP concentrations were extrapolated from a cAMP calibration curve. […] The concentration of test compound required to stimulate a half-maximal response (EC50), and efficacy as compared to an internal agonist control, was determined from a sigmoidal 4-parameter curve fit of the resulting plot of normalized activity versus compound concentration.
In general terms: Time-resolved FRET reads energy transfer from a long-lived donor to a nearby acceptor.
Broadly, the EC50 is the concentration giving half of the maximal effect. A high value points to weaker potency. `O=C(Cc1ccc(OCC[C@@H]2C[C@@H]2C2CCN(c3ncc(Cl)cn3)CC2)cc1)N1CC(F)C1` [Example 6] gave an EC50 of 0.89 nM. The compound `CN(CC1CCCCO1)C(=O)Cc1ccc(OCC[C@@H]2C[C@@H]2C2CCN(c3ncc(Cl)cn3)CC2)cc1F` (some centres unmarked) [Example 156] registered an EC50 of 2.8 nM. The same measure for `COCc1cnc(N2CCC([C@H]3C[C@H]3CCOc3ccc(CC(=O)N4CCn5cnnc5C4)c(F)c3)CC2)nc1` [Example 59]: 7.3 nM. The same measure for `COCc1cnc(N2CCC([C@H]3C[C@H]3CCOc3cc(F)c(CC(=O)N(C)C4COC4)c(F)c3)CC2)nc1` [Example 226]: 0.41 nM; for `O=C(Cc1ccc(OCC[C@@H]2C[C@@H]2C2CCN(c3ncc(Cl)cn3)CC2)cc1F)NC1CC1(F)F` (some centres unmarked) [Example 88]: 1.7 nM; for `O=C(Cc1ccc(OCC[C@@H]2C[C@@H]2C2CCN(c3ncc(Cl)cn3)CC2)cc1F)N1CCCc2ncccc21` [Example 131]: 8 nM. The same measure for `CC1(O)CCN(C(=O)Cc2ccc(OCC[C@@H]3C[C@@H]3C3CCN(c4ncc(Cl)cn4)CC3)cc2F)C1` (some centres unmarked) [Example 74]: 4.2 nM; for `CC1(NC(=O)Cc2ccc(OCC[C@@H]3C[C@@H]3C3CCN(c4ncc(Cl)cn4)CC3)cc2F)CCC1` [Example 92]: 4 nM; for `CN(CCC1CCOCC1)C(=O)Cc1ccc(OCC[C@@H]2C[C@@H]2C2CCN(c3ncc(Cl)cn3)CC2)cc1F` [Example 165]: 2.6 nM.

`CN(C(=O)Cc1ccc(OCC[C@@H]2C[C@@H]2C2CCN(c3ncc(Cl)cn3)CC2)cc1F)C1CCCCC1` [Example 164] had a concentration for a half-maximal effect (EC50) of 1.6 nM. Against the preceding compound, the EC50 is about 1.6-fold lower. Turning to `COCc1cnc(N2CCC([C@H]3C[C@H]3CCOc3cc(F)c(CC(=O)N4CCOCC4)c(F)c3)CC2)nc1` [Example 223], the EC50 was determined as 0.38 nM. This EC50 is about 4.2-fold lower than that of the compound before.

For `O=C(Cc1ccc(OCC[C@@H]2C[C@@H]2C2CCN(c3ncc(Cl)cn3)CC2)cc1F)N1CCc2sc(C(F)(F)F)nc2C1` [Example 186], the EC50 was determined as 1.7 nM. Against the preceding compound, the EC50 is about 4.5-fold higher. As to `COCc1cnc(N2CCC([C@H]3C[C@H]3CCOc3ccc(CC(=O)N4C[C@H](F)[C@@H](F)C4)c(F)c3)CC2)nc1` [Example 50], the midpoint of the response, the EC50, lay at 1 nM. Against the preceding compound, the EC50 is about 1.7-fold lower.

As for `O=C(Cc1ccc(OCC[C@@H]2C[C@@H]2C2CCN(c3ncc(Cl)cn3)CC2)cc1F)NC1CC1` [Example 62], it took 1.4 nM to reach a half-maximal effect (EC50).

In the case of `CN(CCO)C(=O)Cc1ccc(OCC[C@@H]2C[C@@H]2C2CCN(c3ncc(Cl)cn3)CC2)cc1F` [Example 170], the EC50 worked out at 1.7 nM. The same measure for `CC1c2ncc(C(F)(F)F)n2CCN1C(=O)Cc1ccc(OCC[C@@H]2C[C@@H]2C2CCN(c3ncc(Cl)cn3)CC2)cc1F` (some centres unmarked) [Example 180]: 0.82 nM; for `O=C(Cc1ccc(OCC[C@@H]2C[C@@H]2C2CCN(c3ncc(Cl)cn3)CC2)cc1F)N1Cc2nc(-c3ccccc3)[nH]c2C1` [Example 197]: 6.8 nM. The same measure for `CCOCc1cnc(N2CCC([C@H]3C[C@H]3CCOc3ccc(CC(=O)N4CC(F)(F)C4)c(F)c3)CC2)nc1` [Example 202]: 0.3 nM; for `COCc1cnc(N2CCC([C@H]3C[C@H]3CCOc3ccc(CC(=O)N4CC(OC)C4)c(Cl)c3)CC2)nc1` [Example 30]: 0.86 nM. The same measure for `Cc1cnc(Cc2ccc(OCC[C@@H]3C[C@@H]3C3CCN(c4ncc(Cl)cn4)CC3)cc2F)o1` [Example 243, 5-chloro-2-{4-[(1R,2S)-2-(2-{3-fluoro-4-[(5-methyl-1,3-oxazol-2-yl)methyl]phenoxy}ethyl)cyclopropyl]piperidin-1-yl}pyrimidine]: 2.5 nM; for `O=C(Cc1ccc(OCC[C@@H]2C[C@@H]2C2CCN(c3ncc(Cl)cn3)CC2)cc1F)NC(C1CC1)C1CC1` [Example 110]: 5.8 nM; for `O=C(Cc1ccc(OCC[C@@H]2C[C@@H]2C2CCN(c3ncc(Cl)cn3)CC2)cc1F)N1CCC(F)(F)CC1` [Example 86]: 0.8 nM. In turn, `COCc1cnc(N2CCC([C@H]3C[C@H]3CCOc3ccc(CC(=O)N4CCC4)c(F)c3)CC2)nc1` [Example 41, 1-(azetidin-1yl)-2-(2-fluoro-4-{2 [(1S,2R)-2-{1-[5-(methoxylmethyl)pyrimidin-2yl]piperidin-4-yl}cyclopropyl]ethoxyl}phenyl)ethanone] showed an EC50 of 0.77 nM. The same measure for `CCOc1cnc(N2CCC([C@H]3C[C@H]3CCOc3cc(F)c(CC(=O)N4CC(F)(F)C4)c(F)c3)CC2)nc1` [Example 231]: 0.13 nM; for `COCc1cnc(N2CCC([C@H]3C[C@H]3CCOc3ccc(CC(=O)N4CCC[C@@H]4C)c(F)c3)CC2)nc1` [Example 49]: 1.6 nM. The same measure for `Cc1nc2c(s1)CN(C(=O)Cc1ccc(OCC[C@@H]3C[C@@H]3C3CCN(c4ncc(Cl)cn4)CC3)cc1F)CC2` [Example 176]: 0.78 nM; for `O=C(Cc1ccc(OCC[C@@H]2C[C@@H]2C2CCN(c3ncc(Cl)cn3)CC2)cc1)N1CCOCC1` [Example 5]: 3.6 nM.

Take `O=C(Cc1ccc(OCC[C@@H]2C[C@@H]2C2CCN(c3ncc(Cl)cn3)CC2)cc1F)NC1CCCC1F` (some centres unmarked) [Example 111]: it took 3 nM to reach a half-maximal effect (EC50). This EC50 and that of the compound before are within 1.5-fold of each other. Compound `CC1(NC(=O)Cc2ccc(OCC[C@@H]3C[C@@H]3C3CCN(c4ncc(Cl)cn4)CC3)cc2F)CCCC1` [Example 94] had an EC50 of 6.5 nM. The same measure for `Cc1nc2c([nH]1)CN(C(=O)Cc1ccc(OCC[C@@H]3C[C@@H]3C3CCN(c4ncc(Cl)cn4)CC3)cc1F)C2` [Example 121]: 2.2 nM; for `O=C(Cc1ccc(OCC[C@@H]2C[C@@H]2C2CCN(c3ncc(Cl)cn3)CC2)cc1F)N1CCc2nc(C3CC3)sc2C1` [Example 184]: 1.7 nM.

`COCc1cnc(N2CCC([C@H]3C[C@H]3CCOc3cc(F)c(CC(=O)N4CCCC4)c(F)c3)CC2)nc1` [Example 228] registered an EC50 of 0.2 nM. With `COc1cnc(N2CCC([C@H]3C[C@H]3CCOc3cc(F)c(CC(=O)N4CC(C)(O)C4)c(F)c3)CC2)nc1` [Example 212], it took 0.88 nM to reach a half-maximal effect (EC50). The same measure for `N#Cc1cc(OCC[C@@H]2C[C@@H]2C2CCN(c3ncc(Cl)cn3)CC2)ccc1CC(=O)N1CCC1` [Example 23, 2-[2-(azetidin-1-yl)-2-oxoethyl]-5-(2-{(1S,2R)-2-[1-(5-chloropyrimidin-2-yl)piperidin-4-yl]cyclopropyl}ethoxy)benzonitrile]: 0.32 nM. The same measure for `CC(C)CCN(C)C(=O)Cc1ccc(OCC[C@@H]2C[C@@H]2C2CCN(c3ncc(Cl)cn3)CC2)cc1F` [Example 109]: 10.3 nM; for `COCc1cnc(N2CCC([C@H]3C[C@H]3CCOc3ccc(CC(=O)N4CC(C)(C)C4)cc3)CC2)nc1` [Example 13]: 5.2 nM; for `O=C(Cc1ccc(OCC[C@@H]2C[C@@H]2C2CCN(c3ncc(Cl)cn3)CC2)cc1F)N1CCc2ncncc2C1` [Example 127]: 1.5 nM. The same measure for `CCOCc1cnc(N2CCC([C@H]3C[C@H]3CCOc3ccc(CC(=O)N4CCC4)c(F)c3)CC2)nc1` [Example 200]: 0.79 nM; for `CNC(=O)Cc1c(F)cc(OCC[C@@H]2C[C@@H]2C2CCN(c3ncc(COC)cn3)CC2)cc1F` [Example 227]: 2.5 nM. `COc1cnc(N2CCC([C@H]3C[C@H]3CCOc3cc(F)c(CC(=O)N4CC(F)(F)C4)c(F)c3)CC2)nc1` [Example 217] had an EC50 of 0.07 nM. Compared with the last compound, the EC50 is about 36-fold lower. The same measure for `COc1cnc(N2CCC([C@H]3C[C@H]3CCOc3ccc(CC(=O)N4CC(OC)C4)c(F)c3)CC2)nc1` [Example 34]: 0.98 nM; for `CC1CCC(N(C)C(=O)Cc2ccc(OCC[C@@H]3C[C@@H]3C3CCN(c4ncc(Cl)cn4)CC3)cc2F)CC1` (some centres unmarked) [Example 161]: 3.7 nM. The same measure for `NC(=O)C1CCN1C(=O)Cc1ccc(OCC[C@@H]2C[C@@H]2C2CCN(c3ncc(Cl)cn3)CC2)cc1F` (some centres unmarked) [Example 106]: 4.3 nM. Take `CCc1cnc(N2CCC([C@H]3C[C@H]3CCOc3ccc(CC(=O)N4CCC4)c(C#N)c3)CC2)nc1` [Example 24]: the midpoint of the response, the EC50, lay at 0.4 nM. Compared with the last compound, the EC50 is about 11-fold lower.
